Assay results published in the NIST ThermoML archive (doi:10.1021/acs.jced.7b00840).
± gives the expanded uncertainty stated by the source.

Settings: Crystal; visual observation

Compound Nc1ccc(I)cc1 [4-iodoaniline] has a Triple point temperature of 332.35 ± 0.87 K.

Compound Nc1ccccc1I [2-iodoaniline] has a Triple point temperature of 325.7 ± 1.2 K.
